The source of these data is patent US20160046616A1, “NRF2 SMALL MOLECULE INHIBITORS FOR CANCER THERAPY” (THE JOHNS HOPKINS UNIVERSITY, priority 2013, published 2016).

Assay [1] concerns H1437 NRF2-ARE-Fluc stable cell line. The assay can be described thus: H1437 Nrf2 assay: NRF2-ARE firefly luciferase reporter gene assay. It counts as cell-based. The following applies: Homo sapiens, NCI-H1437, H1437 NRF2-ARE-Fluc stable cell line; read-out: Potency of inhibition, H1437. From the text:
H1437 is another NSCLC cell line with LOF Keap1 activity and constitutive translocation of NRF2 into the nucleus. A firefly luciferase reporter construct driven by a minimal promoter of NRF2-specific ARE is stably expressed in the H1437 cells. This cell line was used as a confirmation assay to make sure hits identified from primary screening and that passed counterscreen assays worked in different cell types with a constitutively active NRF2 pathway (deficiency in Keap1).
This assay was very similar to the primary assay except that the cell line was changed. […] The final concentration of DMSO was maintained at 0.46%. Control compounds Budesonide and Staurosporine were both added at a concentration of 2 mM and Budesonide was also added as a 1:10 titration, starting at 200 μM, to achieve dose-response. After an 18-24 hour incubation at 37° C., 95% humidity, and 5% CO2, 1 μL of 5× CellTiter-Fluor non-lytic cell viability assay reagent (Promega, Madison Wis.) was added into the each well of the plates. The plates were then incubated for 30 minutes at room temperature before they were read on a ViewLux plate imager (Perkin Elmer, Waltham Mass.) using an excitation wavelength of 405 nm and an emission wavelength of 525 nm.
(§1) Representative compounds were assayed to assess the potency of inhibition in an A549 NRF2-ARE-Fluc stable cell line (A549 Nrf2 assay), in an H838 NRF2-ARE-Fluc stable cell line (H838 Nrf2 assay), and in an H1437 NRF2-ARE-Fluc stable cell line (H1437 Nrf2 assay) (see Table 3).
On the technique in general: A reporter such as luciferase makes a cellular process visible.

Assay [2] has as its system A549 NRF2-ARE-Fluc stable cell line. Description: A549 Nrf2 assay: NRF2-ARE firefly luciferase reporter gene assay. The settings on record: Homo sapiens, read-out: Potency of inhibition, A549. It counts as cell-based.
From the text: A549, the parental cell line, is a non-small-cell lung cancer (NSCLC) cell line with loss-of-function (LOF) Keap1 activity, thus NRF2 transcription factor constitutively translocates into the nucleus to activate the expression of downstream target genes of NRF2. A firefly luciferase reporter (Fluc) construct driven by a minimal promoter of NRF2-specific anti-oxidant responsive element (ARE) is stably expressed in the A549 cells. Compounds that reduce the translocation of NRF2 into the nucleus or prevent the interaction between NRF2 and ARE will lead to a decrease in luciferase activity.
The final concentration of DMSO was maintained at 0.46%. Control compounds Budesonide and Staurosporine were both added at a concentration of 2 mM and Budesonide also was added as a 1:10 titration, starting at 200 μM, to achieve dose-response. After an 18-24 hour incubation at 37° C., 95% humidity, and 5% CO2, 1 μL of 5× CellTiter-Fluor non-lytic cell viability assay reagent (Promega, Madison, Wis.) was added into the each well of the plates. The plates were then incubated for 30 minutes at room temperature before they were read on a ViewLux plate imager (Perkin Elmer, Waltham, Mass.) using an excitation wavelength of 405 nm and an emission wavelength of 525 nm.
A cell based reporter assay approach was used for the identification of agents that could inhibit Nrf2 mediated gene expression (FIG. 1). A549-ARE-luciferase cells express the luciferase gene driven by a minimal promoter and an enhancer element containing an NRF2 binding site (Antioxidant Response Element, ARE).
as §1

pIC50: −log10 of the molar value.

For `Cc1ccccc1C(=O)N1CCc2cc(-c3nc(NC(=O)Cc4cccc(O)c4)sc3C)ccc21` [Compound 234, 2-(3-hydroxyphenyl)-N-(5-methyl-4-(1-(2-methylbenzoyl)indolin-5-yl)thiazol-2-yl)acetamide], the pIC50 in assay [1] and in assay [2] was 4.60 to 5.30 each time.

For `O=C(Nc1cccc(Cc2ccccc2)c1)c1ccc(-c2cccc([N+](=O)[O-])c2)o1` [Compound 56], the pIC50 in assay [1] and in assay [2] was 4.60 to 5.30 throughout.

For the molecule `CN(C(=O)c1ccc(CN2CCc3ccccc3C2)cc1)c1ccc(S(=O)(=O)N2CCOCC2)cc1` [compound 225], the pIC50 in assay [1] was < 4.60; in assay [2], 4.60 to 5.30.

On to `O=C(Nc1ccc(N2CCOCC2)cc1)c1ccc(CN2CCc3ccccc3C2)cc1` [compound 149], for which the pIC50 is < 4.60 in assay [1] and > 5.30 in assay [2].

For `Cc1ccccc1C(=O)N1CCc2cc(-c3nc(NC(=O)C(C)(C)C)sc3C)ccc21` [Compound 209], the pIC50 in assay [1] was > 5.30; in assay [2], 4.60 to 5.30.

Take `Cc1ccc(Cc2cnc(NC(=O)c3ccn(-c4ccccc4)n3)s2)o1` [Compound 213]: the pIC50 in assay [1] and in assay [2] was 4.60 to 5.30 each time.

Turning to `Cc1sc(NC(=O)Cc2ccc3c(c2)OCO3)nc1-c1ccc2c(c1)CCN2C(=O)c1ccnn1C` [Compound 185], the pIC50 in assay [1] and in assay [2] was > 5.30 each time.

Regarding `Cc1sc(NC(=O)Cc2ccc3c(c2)OCO3)nc1-c1ccc2c(c1)CCN2` [Compound 17, 2-(Benzo[d][1,3]dioxol-5-yl)-N-(4-(indolin-5-yl)-5-methylthiazol-2-yl)acetamide], the pIC50 in assay [1] is < 4.60; in assay [2], 4.60 to 5.30.

For the molecule `O=C(Cc1ccccc1)Nc1cncc(Cl)n1` [Compound 105, N-(6-chloropyrazin-2-yl)-2-phenylacetamide], the pIC50 in assay [1] and in assay [2] was < 4.60 throughout.

Turning to `CC1CN(S(=O)(=O)c2ccc(NC(=O)c3ccc(CN4CCc5ccccc5C4)cc3)cc2)CC(C)O1` (stereo not shown) [compound 155], the pIC50 in assay [1] and in assay [2] was > 5.30 in each case.

In the case of `O=C(Nc1ncc(Cc2cccc(C(F)(F)F)c2)s1)c1ccc(-c2cccc([N+](=O)[O-])c2)o1` [Compound 20], the results for the pIC50 in assay [1] and in assay [2] were > 5.30 and 4.60 to 5.30, respectively.

Consider `Cc1ccccc1S(=O)(=O)N1CCc2cc(-c3nc(NC(=O)Cc4ccccc4C(F)(F)F)sc3C)ccc21` [Compound 129], for which the pIC50 in assay [1] was < 4.60; in assay [2], > 5.30.

For the molecule `O=C(Nc1ncc(Cc2ccc(C(F)(F)F)cc2)s1)c1ccn(Cc2ccccn2)n1` [Compound 192], the pIC50 in assay [1] and in assay [2] was < 4.60 each time.

On to `Cc1ccc(NC(=O)COc2ccccc2C(N)=O)cc1S(=O)(=O)N1CCCCCC1` [Compound 45], for which the pIC50 in assay [1] and in assay [2] was > 5.30 in each case.

In the case of `O=C(Nc1ccc(S(=O)(=O)N2CCOCC2)cc1)c1ccc(CN2CCN(c3ccccc3)CC2)cc1` [Compound 203], the pIC50 in assay [1] and in assay [2] was > 5.30 throughout.

Take `O=C(Nc1ncc(Cc2cccc(Cl)c2)s1)c1ccn(-c2ccccc2)n1` [Compound 220]: the values for the pIC50 in assay [1] and in assay [2] were > 5.30 and 4.60 to 5.30, respectively.

Regarding `Cc1ccccc1C(=O)N1CCc2cc(-c3csc(NC(=O)Cc4ccc5c(c4)OCO5)n3)ccc21` [Compound 2], the pIC50 in assay [1] and in assay [2] was 4.60 to 5.30 each time.

As to `Cc1ccccc1C(=O)N1CCc2cc(-c3nc(NC(=O)CN4CCN(C)CC4)sc3C)ccc21` [Compound 72], the pIC50 in assay [1] was 4.60 to 5.30; in assay [2] it was < 4.60.

Regarding `Cc1ccccc1C(=O)N1CCc2cc(-c3nc(NC(=O)CC4CCNCC4)sc3C)ccc21` [Compound 73], the figures for the pIC50 in assay [1] and in assay [2] were 4.60 to 5.30 and < 4.60, respectively.

Consider `Cc1ccccc1C(=O)N1CCc2cc(Br)ccc21` [Compound 107, (5-bromoindolin-1-yl)(o-tolyl)methanone], for which the pIC50 in assay [1] was < 4.60; in assay [2], 4.60 to 5.30.

As for `CC1CCCN(C(=O)c2ccc(S(=O)(=O)N3CCC(c4nc5ccccc5s4)CC3)cc2)C1` (stereo not shown) [Compound 36], the pIC50 in assay [1] and in assay [2] was > 5.30 each time.

Take `O=C(Cc1ccccc1)Nc1ccc(Cl)nc1` [Compound 106, N-(6-chloropyridin-3-yl)-2-phenylacetamide]: the pIC50 in assay [1] and in assay [2] was < 4.60 in each case.

Consider `Cc1noc(C)c1C(=O)N1CCc2cc(-c3nc(NC(=O)Cc4ccc5c(c4)OCO5)sc3C)ccc21` [Compound 183], for which the pIC50 in assay [1] and in assay [2] was > 5.30 throughout.

With `Cc1ccccc1C(=O)N1CCc2cc(-c3nc(NC(=O)CN4CCN(C(=O)C5CC5)CC4)sc3C)ccc21` [Compound 212], the pIC50 in assay [1] and in assay [2] was > 5.30 throughout.

As to `CCN(C1CCCCC1)S(=O)(=O)c1ccc(S(=O)(=O)NCc2ccncc2)cc1` [Compound 33], the figures for the pIC50 in assay [1] and in assay [2] were > 5.30 and 4.60 to 5.30, respectively.

Turning to `CC(=O)N1CCc2cc(-c3nc(NC(=O)Cc4ccc5c(c4)OCO5)sc3C)ccc21` [Compound 21], the pIC50 in assay [1] was 4.60 to 5.30; in assay [2], > 5.30.

Turning to `O=C(Nc1ccc(S(=O)(=O)N2CCN(Cc3ccccc3)CC2)cc1)c1cnccn1` [Compound 34], the pIC50 in assay [1] is 4.60 to 5.30; in assay [2], > 5.30.

On to `Cc1ccccc1C(=O)N1CCc2cc(N3CCC(N)C3)ccc21` (stereo not shown) [Compound 93, (5-(3-aminopyrrolidin-1-yl)indolin-1-yl)(o-tolyl)methanone], for which the figures for the pIC50 in assay [1] and in assay [2] were < 4.60 and 4.60 to 5.30, respectively.

Take `CC(=O)N1CCN(Cc2ccc(C(=O)Nc3ccc(S(=O)(=O)N4CCOCC4)cc3)cc2)CC1` [Compound 201]: the pIC50 in assay [1] and in assay [2] was 4.60 to 5.30 each time.

With `O=C(Nc1ncc(Cc2ccc(Cl)cc2)s1)c1ccn(-c2ccccc2)n1` [Compound 224], the pIC50 in assay [1] and in assay [2] was > 5.30 in each case.

Take `Cc1sc(NC(=O)Cc2ccc3c(c2)OCO3)nc1-c1ccc2c(c1)CCN2C(=O)c1sccc1Cl` [Compound 186]: the pIC50 in assay [1] and in assay [2] was > 5.30 throughout.

As to `O=C(Nc1ncc(Cc2ccc(C(F)(F)F)cc2)s1)c1ccc(-c2ccccc2[N+](=O)[O-])o1` [Compound 18], the pIC50 was > 5.30 in assay [1] and 4.60 to 5.30 in assay [2].

Turning to `Cc1ccccc1C(=O)Nc1ccc(-c2cccc(NC(=O)Cc3ccccc3)n2)cc1` [Compound 71], the pIC50 in assay [1] is < 4.60; in assay [2], 4.60 to 5.30.

For the molecule `COc1ccc(CC(=O)Nc2nc(-c3ccc4c(c3)CC(C)N4C(=O)c3ccccc3C)c(C)s2)cc1` (stereo not shown) [Compound 232], the pIC50 in assay [1] and in assay [2] was 4.60 to 5.30 each time.

Consider `CC1Cc2ccccc2CN1Cc1ccc(C(=O)Nc2ccc([S+](=O)([O-])N3CCOCC3)cc2)cc1` (stereo not shown) [Compound 206], for which the pIC50 in assay [1] and in assay [2] was > 5.30 throughout.

On to `Cc1ccccc1S(=O)(=O)N1CCc2cc(-c3nc(NC(=O)Cc4ccc5c(c4)OCO5)sc3C)ccc21` [Compound 24], for which the pIC50 was 4.60 to 5.30 in assay [1] and > 5.30 in assay [2].

Regarding `Cc1ccccc1C(=O)N1CCc2cc(N3CCCC(N)C3)ccc21` (stereo not shown) [Compound 94, (5-(3-aminopiperidin-1-yl)indolin-1-yl)(o-tolyl)methanone], the pIC50 in assay [1] and in assay [2] was < 4.60 in each case.

For the molecule `O=C(Nc1ccc(Cl)c(S(=O)(=O)N2CCOCC2)c1)c1ccc(S(=O)(=O)N2CCCCC2)cc1` [compound 54], the pIC50 in assay [1] and in assay [2] was > 5.30 each time.

In the case of `O=C(Nc1ccc(S(=O)(=O)N2CCOCC2)cc1)c1ccc(CN2CCCc3ccccc32)cc1` [compound 172], the pIC50 in assay [1] and in assay [2] was > 5.30 throughout.

As to `Cc1ccccc1C(=O)N1CCc2cc(-c3nc(NS(=O)(=O)Cc4ccccc4)sc3C)ccc21` [Compound 109], the pIC50 in assay [1] and in assay [2] was 4.60 to 5.30 each time.

On to `CC(=O)N1CCN(CC(=O)Nc2nc(-c3ccc4c(c3)CCN4C(=O)c3ccccc3C)c(C)s2)CC1` [Compound 227], for which the pIC50 in assay [1] and in assay [2] was 4.60 to 5.30 throughout.
